Reference: ChEMBL document CHEMBL1127134, “Synthesis and antibacterial activity of (1R,5R,6R)-2-tert-butyl-6-(1-hydroxyethyl)oxapenem-3-carboxylic acid” (1993)

Legend:
Format in all cases: functional
Bacteroides fragilis [1] = experiment: Minimum inhibitory concentration required for the antibacterial activity against Bacillus fragilis 4891/91 Kr
Bacteroides fragilis [2] = experiment: Minimum inhibitory concentration required for the antibacterial activity against Bacillus fragilis DSM 2151
Bacteroides fragilis [3] = experiment: Minimum inhibitory concentration required for the antibacterial activity against Bacillus fragilis ES 25
Bacteroides fragilis [4] = experiment: Minimum inhibitory concentration required for the antibacterial activity against Bacillus fragilis GA I - 0558 Japan
Bacteroides fragilis [5] = experiment: Minimum inhibitory concentration required for the antibacterial activity against Bacillus fragilis Kr 1 TV
Bacteroides fragilis [6] = experiment: Minimum inhibitory concentration required for the antibacterial activity against Bacillus fragilis Kr II
Bacteroides fragilis [7] = experiment: Minimum inhibitory concentration required for the antibacterial activity against Bacillus fragilis L 1168 Italien
[8] = test system: Prevotella melaninogenica; experiment: Minimum inhibitory concentration required for the antibacterial activity against Bacillus melaninogenicus Kr
Bacteroides ovatus = experiment: Minimum inhibitory concentration required for the antibacterial activity against Bacillus ovatus Heidelberg 32
[9] = test system: Parabacteroides distasonis; experiment: Minimum inhibitory concentration required for the antibacterial activity against Bacillus distasonis Heidelberg
[10] = test system: Parabacteroides distasonis; experiment: Minimum inhibitory concentration required for the antibacterial activity against Bacillus distasonis Kr
Bacteroides fragilis [11] = experiment: Minimum inhibitory concentration required for the antibacterial activity against Bacillus fragilis 010848
Bacteroides fragilis [12] = experiment: Minimum inhibitory concentration required for the antibacterial activity against Bacillus fragilis 1560 I/82
Bacteroides fragilis [13] = experiment: Minimum inhibitory concentration required for the antibacterial activity against Bacillus fragilis 2034/35 Kr 43
Bacteroides fragilis [14] = experiment: Minimum inhibitory concentration required for the antibacterial activity against Bacillus fragilis 4661 Kr
[15] = test system: Bacteroides thetaiotaomicron; experiment: Minimum inhibitory concentration required for the antibacterial activity against Bacillus thetaiotaomicron DSM 2079
Clostridium perfringens [16] = experiment: Minimum inhibitory concentration required for the antibacterial activity against Clostridium perfringens 1024027
Clostridium perfringens [17] = experiment: Minimum inhibitory concentration required for the antibacterial activity against Clostridium perfringens 24072
Clostridium perfringens [18] = experiment: Minimum inhibitory concentration required for the antibacterial activity against Clostridium perfringens DSM 756
Clostridium butyricum = experiment: Minimum inhibitory concentration required for the antibacterial activity against Clostridium butyricum
Thomasclavelia ramosa = experiment: Minimum inhibitory concentration required for the antibacterial activity against Clostridium ramosum DSM 1402
Clostridium sporogenes = experiment: Minimum inhibitory concentration required for the antibacterial activity against Clostridium sporogenes
Enterococcus [19] = experiment: Minimum inhibitory concentration required for the antibacterial activity against Enterococcus 27158
Enterococcus [20] = experiment: Minimum inhibitory concentration required for the antibacterial activity against Enterococcus 9790
Escherichia coli [21] = experiment: Minimum inhibitory concentration required for the antibacterial activity against Escherichia coli Neumann
Enterobacter cloacae [22] = experiment: Minimum inhibitory concentration required for the antibacterial activity against Enterobacter cloacae 56 US
Enterobacter cloacae [23] = experiment: Minimum inhibitory concentration required for the antibacterial activity against Enterobacter cloacae 5744
Escherichia coli [24] = experiment: Minimum inhibitory concentration required for the antibacterial activity against Escherichia coli C165
Escherichia coli [25] = experiment: Minimum inhibitory concentration required for the antibacterial activity against Escherichia coli F14
Escherichia coli [26] = experiment: Minimum inhibitory concentration required for the antibacterial activity against Escherichia coli T7
Fusobacterium nucleatum = experiment: Minimum inhibitory concentration required for the antibacterial activity against Fusobacterium nucleatum DSM 20482
Klebsiella [27] = experiment: Minimum inhibitory concentration required for the antibacterial activity against Klebsiella 57USA
Klebsiella [28] = experiment: Minimum inhibitory concentration required for the antibacterial activity against Klebsiella 6097
Klebsiella [29] = experiment: Minimum inhibitory concentration required for the antibacterial activity against Klebsiella 63
[30] = test system: Peptostreptococcus anaerobius; experiment: Minimum inhibitory concentration required for the antibacterial activity against Peptostrept. anaer. Kr I
Pseudomonas aeruginosa [31] = experiment: Minimum inhibitory concentration required for the antibacterial activity against Pseudomonas aeruginosa 7053
Pseudomonas aeruginosa [32] = experiment: Minimum inhibitory concentration required for the antibacterial activity against Pseudomonas aeruginosa 7451
[33] = test system: Peptostreptococcus anaerobius; experiment: Minimum inhibitory concentration required for the antibacterial activity against Peptostrept. anaer. 222 I/82
Providencia sp. = experiment: Minimum inhibitory concentration required for the antibacterial activity against Providencia 12012
Providencia rettgeri = experiment: Minimum inhibitory concentration required for the antibacterial activity against Proteus rettgeri 1007
Proteus mirabilis = experiment: Minimum inhibitory concentration required for the antibacterial activity against Proteus mirabilis 1235
Proteus vulgaris [34] = experiment: Minimum inhibitory concentration required for the antibacterial activity against Proteus vulgaris 1017
Proteus vulgaris [35] = experiment: Minimum inhibitory concentration required for the antibacterial activity against Proteus vulgaris N6
Morganella morganii = experiment: Minimum inhibitory concentration required for the antibacterial activity against Proteus Morganii 932
Serratia [36] = experiment: Minimum inhibitory concentration required for the antibacterial activity against Serratia 16001
Serratia [37] = experiment: Minimum inhibitory concentration required for the antibacterial activity against Serratia 16002
Staphylococcus = experiment: Minimum inhibitory concentration required for the antibacterial activity against Staphylococcus E 25485
Staphylococcus aureus [38] = experiment: Minimum inhibitory concentration required for the antibacterial activity against Staphylococcus aureus 133
Staphylococcus aureus [39] = experiment: Minimum inhibitory concentration required for the antibacterial activity against Staphylococcus aureus 13N Munchen
Staphylococcus aureus [40] = experiment: Minimum inhibitory concentration required for the antibacterial activity against Staphylococcus aureus 1756
Staphylococcus aureus [41] = experiment: Minimum inhibitory concentration required for the antibacterial activity against Staphylococcus aureus 25085
Staphylococcus aureus [42] = experiment: Minimum inhibitory concentration required for the antibacterial activity against Staphylococcus aureus 25455
Staphylococcus aureus [43] = experiment: Minimum inhibitory concentration required for the antibacterial activity against Staphylococcus aureus 25463
Staphylococcus aureus [44] = experiment: Minimum inhibitory concentration required for the antibacterial activity against Staphylococcus aureus 25470
Staphylococcus aureus [45] = experiment: Minimum inhibitory concentration required for the antibacterial activity against Staphylococcus aureus 25697
Staphylococcus aureus [46] = experiment: Minimum inhibitory concentration required for the antibacterial activity against Staphylococcus aureus 25768
Staphylococcus aureus [47] = experiment: Minimum inhibitory concentration required for the antibacterial activity against Staphylococcus aureus 41h Belgium
Staphylococcus aureus [48] = experiment: Minimum inhibitory concentration required for the antibacterial activity against Staphylococcus aureus 4978 Israel
Staphylococcus aureus [49] = experiment: Minimum inhibitory concentration required for the antibacterial activity against Staphylococcus aureus 79B Innsbruck
Staphylococcus aureus [50] = experiment: Minimum inhibitory concentration required for the antibacterial activity against Staphylococcus aureus 86 Innsbruck
Staphylococcus aureus [51] = experiment: Minimum inhibitory concentration required for the antibacterial activity against Staphylococcus aureus 90 Innsbruck
Enterococcus faecalis [52] = experiment: Minimum inhibitory concentration required for the antibacterial activity against Streptococcus faecalis 113
Enterococcus faecalis [53] = experiment: Minimum inhibitory concentration required for the antibacterial activity against Streptococcus faecalis 27101
Pseudomonas aeruginosa [54] = experiment: Minimum inhibitory concentration required for the antibacterial activity against Pseudomonas aeruginosa F41
Clostridium septicum = experiment: Minimum inhibitory concentration required for the antibacterial activity against Clostridium septicum
Staphylococcus aureus [55] = experiment: Minimum inhibitory concentration required for the antibacterial activity against Staphylococcus aureus 48N Munchen

Measured: MIC

C[C@@H](O)[C@H]1C(=O)N2C(C(=O)[O-])=C(C(C)(C)C)O[C@H]12.[K+]
0.12 µg/mL: Staphylococcus aureus [38] | Staphylococcus aureus [42]
1.56 µg/mL: Staphylococcus aureus [39] | Staphylococcus aureus [40]; Staphylococcus aureus, read-out: MIC | Staphylococcus aureus [41] | Staphylococcus aureus [43] | Staphylococcus aureus [45]
4 µg/mL: Klebsiella [27] | Klebsiella [29] | Providencia sp. | Proteus mirabilis
16 µg/mL: Enterococcus [19] | Enterobacter cloacae [22] | Escherichia coli [25] | Klebsiella [28] | Enterococcus faecalis [52]
8 µg/mL: [9] | Escherichia coli [24]
50 µg/mL: Staphylococcus aureus [44]
≤ 0.78 µg/mL: Staphylococcus aureus [46] | Staphylococcus aureus [48] | Staphylococcus aureus [49] | Staphylococcus aureus [50] | Staphylococcus aureus [51] | Staphylococcus aureus [55]
≤ 0.06 µg/mL: Staphylococcus
32 µg/mL: Enterobacter cloacae [23]
1 µg/mL: Bacteroides fragilis [2] | [10] | [15] | Clostridium perfringens [16] | Clostridium perfringens [18] | Thomasclavelia ramosa | Proteus vulgaris [34] | Proteus vulgaris [35]
> 128 µg/mL: Pseudomonas aeruginosa [31] | Pseudomonas aeruginosa [32] | Pseudomonas aeruginosa [54]
0.5 µg/mL: [8] | Clostridium perfringens [17] | Clostridium sporogenes | Fusobacterium nucleatum
2 µg/mL: Bacteroides fragilis [1] | Bacteroides fragilis [3] | Bacteroides fragilis [4] | Bacteroides fragilis [5] | Bacteroides fragilis [6] | Bacteroides fragilis [7] | Bacteroides ovatus | Bacteroides fragilis [11] | Bacteroides fragilis [12] | Bacteroides fragilis [13] | Bacteroides fragilis [14] | Clostridium butyricum | Enterococcus [20] | Escherichia coli [21] | Escherichia coli [26] | [30] | [33] | Providencia rettgeri | Morganella morganii | Staphylococcus aureus [40] | Enterococcus faecalis [53] | Clostridium septicum
12.5 µg/mL: Staphylococcus aureus [47]
64 µg/mL: Serratia [36] | Serratia [37]
